Assay results taken from patent publication US7074765B2, “Synthetic peptide analogs of Arg-Pro-Pro-Gly-Phe as selective inhibitors of thrombin and thrombin activation of protease activated receptors 1 and 4” (The Regents of the University of Michigan, priority 2003, dated 2006).
Where “and” joins values, the source holds several entries; their conditions need not be identical. Identical values can stand only once. Square brackets hold non-standard residues; d marks the D form. Ends that are not written are not given here. Oic = O=C(O)[C@@H]1C[C@@H]2CCCC[C@@H]2N1; Igl = N[C@H](C(=O)O)C1Cc2ccccc2C1; Hyp = O=C(O)[C@@H]1C[C@@H](O)CN1; 2Thi = N[C@@H](Cc1cccs1)C(=O)O

T1: recombinant protease activated receptor 1 extracellular domain (rPAR1EC) (Homo sapiens, UniProt P25116)
T1 construct: A portion of the extracellular domain of human PAR1 (Ala^26-Ser^99) (rPAR1EC) was expressed in Escherichia coli; His10-DDDDK (pET19b) (N); made in house; host or cells: E. coli BL21(DE3), pET19b
T1 sequence (P25116 26-99): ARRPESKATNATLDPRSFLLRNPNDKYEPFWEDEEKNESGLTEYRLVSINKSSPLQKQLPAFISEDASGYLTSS

T2: RPPGF (Arg-Pro-Pro-Gly-Phe, SEQ ID NO:4)
T2 sequence: RPPGF

T3: recombinant protease activated receptor 1 extracellular domain (rPAR1EC), human PAR1 Ala26-Ser99, His10-DDDDK fusion (human), P25116
T3 chain: T1 sequence (P25116 26-99)


Key:
[1] = system: normal human citrated plasma; assay: prothrombin time (PT); format: biochemical; conditions: peptide at the concentration that inhibits platelet aggregation
Procedure: (§1) The influence of the various peptide formulations used in the present invention on established coagulation-based assays was determined. The activated partial thromboplastin time (APTT) is performed by mixing 0.05 ml normal human citrated plasma with 0.05 ml activated partial thromboplastin reagent purchased from Organon Teknika, Research Triangle Park, N.C. in the absence or presence of a peptide inhibitor. After incubation for 5 min at 37° C., the mixture is recalcified with 0.05 ml of 30 mM calcium chloride and the time to clot formation is measured in an Amelung KC4A instrument (Sigma Chemical Corp, St. Louis, Mo.) (Hasan et al. Thrombosis and Haemostasis. 82, 1182–1187 (1999)). The prothrombin time (PT) is performed by mixing 0.05 ml normal human citrated plasma with 0.05 ml Simplastin (Organon Teknika, Research Triangle Park, N.C.) followed by incubation for 3 min at 37° C. in the absence or presence of a peptide inhibitor. At the addition of 0.05 ml of 30 mM calcium chloride, the time to clot formation is measured in an KC4A instrument (Sigma Chemical Corp, St. Louis, Mo.) (Hasan et al. Thrombosis and Haemostasis. 82, 1182–1187 (1999)). The thrombin clotting time (TCT) is performed by adding 0.1 ml normal human citrated plasma in the absence or presence of a peptide inhibitor and 0.05 ml of a α-thrombin solution such that the final concentration of the thrombin in the entire mixture was 1 nM. Upon addition of the thrombin, the time to clot formation is measured in an KC4A instrument (Sigma Chemical Corp, St. Louis, Mo.). In FIG. 5, peptide TH146 produces a significant prolongation (p<0.05) of the activated partial thromboplastin time at 15 μM, of the prothrombin time at 60 μM, and the thrombin clotting time at 15 μM. In FIG. 6, peptide MAP4-TH146 produced a significant prolongation (p<0.05) of the activated partial thromboplastin time at 0.195 μM, of the prothrombin time at 3.125 μM, and the thrombin clotting time at 0.39 μM.

[2] = system: platelets in platelet-rich plasma; assay: γ-thrombin-induced platelet aggregation in platelet-rich plasma; format: cell-based, human; conditions: minimal concentration that blocked γ-thrombin-induced platelet aggregation in platelet-rich plasma
Procedure: Fresh whole blood was collected and mixed with 0.013 M sodium citrate and platelet-rich plasma was prepared according to the method of Meloni et al., J. Biol. Chem. 266, 6786 (1991). Platelet-rich plasma with a normalized platelet count between 2–2.5×10^8 platelets/ml was added to a cuvette of an aggregometer (Chronlog Corp., Havertown, Pa.), standardized using the protocol of Meloni et al., supra. Peptides to be examined were added to the cuvette and the mixture stabilized for a few moments. Once the baseline was stabilized, γ-thrombin (10–70 nM) (Haematologic Technologies, Essex Junction, Vt.) was added to determine the minimal concentration of the agonist necessary to achieve full platelet aggregation. All investigations with peptides were performed using threshold concentrations of γ-thrombin. Aggregation was allowed to proceed for 5 minutes before stopping. When ADP-induced platelet aggregation studies were performed, 1–5 μM ADP (Sigma) was added to the cuvette containing platelet-rich plasma.

[3] = system: normal human citrated plasma; assay: thrombin clotting time (TCT); format: biochemical; conditions: peptide at the concentration that inhibits platelet aggregation
Procedure: as §1

[4] = system: normal human lung fibroblasts (NHLF); assay: α-thrombin-induced calcium mobilization in fibroblasts; format: cell-based; conditions: 0.1 mM peptide; α-thrombin-induced calcium mobilization in fibroblasts
Procedure: The second assay developed to assess peptides from the combinatorial libraries uses inhibition of α-thrombin-induced calcium mobilization in fibroblasts. Normal human lung fibroblasts (NHLF) were purchased from Clonetics, San Diego, Calif., an affiliate of Bio-Wittaker, Walkersville, Md. The cytoplasmic free Ca^2+ concentration ([Ca^2+]i) was measured using the fluorescent Ca^2+ indicator fura-2 (Molecular Probes, Inc., Eugene, Oreg.). Suspension of fibroblasts in Hepes-Tyrode's buffer were loaded with fura-2 by incubation at 37° C. with 2 μM fura-2/acetoxymethyl ester for 45 minutes according to the method of Rasmussen et al., J. Biol. Chem. 268, 14322 (1993). The labeled fibroblasts were separated from excess probe by washing by centrifugation at 1000 rpm (180×g). Aliquots of the labeled fibroblasts were transferred into a quartz cuvette with a magnetic stirrer, which was then placed in a thermostatically controlled chamber at 37° C. in a fluorescence spectrophotometer (Perkin-Elmer LS50B spectrofluorometer, Chicago, Ill.). Reagents, test peptide, and α-thrombin (0.25–2 nM), were sequentially added directly to the cuvette. The excitation wavelengths varied between 340 and 380 nm. Fluorescence was measured by recording emitted light at 510 nm as reported by Fisher et al., Mol Pharm. 35, 195 (1989). The minimum emission was determined on a solubilized fibroblast sample in the presence of 10 mM EDTA; maximum emission was determined on the same sample with 10 mM Ca^2+ added. The intrafibroblast free Ca^2+ concentration was calculated by the method of Grykiewicz et al., J. Biol. Chem. 260, 3440 (1985). […] The KD for fura-2 was assumed to be 224 nM. Rmax and Rmin are the maximum and minimum fluorescence ratios measured at the end of the experiment, respectively; Sf2 and Sb2 are the fluorescence values at 380 nm in the absence and presence of saturating [Ca^2+], respectively. The reaction was monitored for 3–5 minutes.

[5] = system: normal human citrated plasma; assay: activated partial thromboplastin time (APTT); format: biochemical; conditions: peptide at the concentration that inhibits platelet aggregation
Procedure: as §1

[6] = molecular target: T1, recombinant protease activated receptor 1 extracellular domain (rPAR1EC); assay: Inhibition of RPPGF-biotin binding to rPAR1EC; conditions: 5 mM peptide, 50 μM RPPGF-biotin (FIG. 7); listed in decreasing order
[7] = molecular target: recombinant protease activated receptor 1 extracellular domain (rPAR1EC), human PAR1 Ala26-Ser99, His10-DDDDK fusion (human) (UniProt P25116); assay: cell-based or functional assay
α-thrombin = α-thrombin (Homo sapiens, UniProt P00734); assay: cell-based or functional assay
thrombin = thrombin (Homo sapiens, UniProt P00734); conditions: read-out: Ki (direct inhibitor of thrombin); cited from earlier work
PC-3 cells = assay: Thrombin-induced motility of prostate cancer cells (Boyden chamber); format: cell-based; conditions: 10 μM; 2 nM α-thrombin
Procedure: Motility assays are performed with a modified Boyden chamber (tissue culture-treated, 6.5 mm diameter, 10 μm thickness, 8 μm pores). In the motility assays, 2.5×10^4 cells are plated in the top chamber of non-coated polyethylene teraphthalate (PET) membranes (24-well insert, pore size […]; Becton Dickinson). […] RPMI 10% fetal bovine serum is used as a chemoattractant in the lower chamber. […] The cells that transverse the membranes are stained with Dip-Quick (Jorgensen Laboratories, Loveland, Colo.). Cells in five random fields of view at 200× are counted and expressed as the average number of cells/field of view. […]

[8] = system: T2, RPPGF (Arg-Pro-Pro-Gly-Phe, SEQ ID NO:4)
[9] = system: MAP4-rOicPGF (β-Ala-Lys-2Lys-4(D-Arg-Oic-Pro-Gly-Phe))
[10] = system: MAP4-RPPGF (β-Ala-Lys-2Lys-4(Arg-Pro-Pro-Gly-Phe))
[11] = molecular target: T3, recombinant protease activated receptor …; assay: cell-based or functional assay
[12] = molecular target: human α-thrombin (human), P00734; assay: cell-based or functional assay

Molecule | PT (Fold Prolongation over RPPGF) [1] [Fold] | Concentration of Peptide [mM] That Gives 100% Inhibition [2] [mM] | TCT (Fold Prolongation over RPPGF) [3] [Fold] | Ca^2^+ % Inhibition At 0.1 mM Peptide [4] [%] | APTT (Fold Prolongation over RPPGF) [5] [Fold] | also measured
D-Arg-Idg-Tic-Gly-Phe [rIdgTicGF] | 1.1 | 0.1 | 1.2 | 58.44 | 1.0 | –
D-Arg-Oic-Hyp-Gly-Idg [TH37] | – | – | – | – | – | blocking of RPPGF-biotin binding to rPAR1EC by peptides [6]: blocked
D-Arg-Oic-Hyp-Gly-Idg [rOicHypGIdg] | 1.1 | 0.157 | 1.7 | 36.7 | 1.1 | –
D-Arg-Oic-Oic-Gly-Idg [rOicOicGIdg] | 1.1 | 0.257 | 1.1 | 28.1 | 1.1 | –
D-Arg-Oic-Pro-Gly-Idg ([dR][Oic]PG[Igl]-NH2; N-terminus assumed; SMILES N=C(N)NCCC[C@@H](N)C(=O)N1[C@H](C(=O)N2CCC[C@H]2C(=O)NCC(=O)N[C@H](C(N)=O)C2Cc3ccccc3C2)C[C@@H]2CCCC[C@@H]21) [rOicPGIdg] | 1.1 | 0.129 | 1.5 | 36.2 | 1.1 | blocking of RPPGF-biotin binding to rPAR1EC by peptides [6]: blocked
MAP4-RPPGF (β-Ala-Lys-2Lys-4(Arg-Pro-Pro-Gly-Phe)) (peptide) | – | – | – | – | – | inhibition of thrombocytin cleavage of PAR1 (rPAR1EC, SDS-PAGE) [7]: 0.2 mM and 0.5 mM
MAP4-rOicPGF (β-Ala-Lys-2Lys-4(D-Arg-Oic-Pro-Gly-Phe)) (peptide) | – | – | – | – | – | concentration giving significant prolongation (p<0.05) of the APTT of normal human plasma (α-thrombin): 0.195 µM; concentration giving significant prolongation (p<0.05) of the PT of normal human plasma (α-thrombin): 3.12 µM; concentration giving significant prolongation (p<0.05) of the TCT of normal human plasma (α-thrombin): 0.39 µM; inhibition of thrombocytin-induced cleavage of recombinant extracellular domain of human PAR1 (SDS-PAGE) [7]: 0.2 mM
RPPGFSPFR [Bradykinin, Arg-Pro-Pro-Gly-Phe-Ser-Pro-Phe-Arg] | – | – | – | – | – | Ki (thrombin): 170 to 326 µM
[dR][Oic][Hyp]G[2Thi] [rOicHypGThi] | 1.1 | 0.157 | 1.3 | 38 | 1.1 | –
[dR][Oic][Oic]G[2Thi] [rOicOicGThi] | 1.1 | 0.271 | 1.1 | 18.2 | 1.2 | –
hirudin [reference compound] | – | – | – | – | – | effect on thrombin-induced PC-3 cell motility (PC-3 cells): block
thrombocytin | – | – | – | – | – | thrombocytin (16.7 nM) hydrolysis of 1 mM H-D-Phe-Pip-Arg-paranitroanilide in the presence of 2 mM RPPGF [8]: RPPGF (SEQ ID NO:4) or MAP4-RPPGF inhibits the ability of these enzymes to hydrolyze their substrates; thrombocytin (16.7 nM) hydrolysis of 1 mM H-D-Phe-Pip-Arg-paranitroanilide (S2238), 0-1.0 mM MAP4-TH146 [9]: MAP4-TH146 inhibits these enzymes' ability to hydrolyze their substrates; thrombocytin (16.7 nM) hydrolysis of 1 mM H-D-Phe-Pip-Arg-paranitroanilide in the presence of 1 mM MAP4-RPPGF [10]: RPPGF (SEQ ID NO:4) or MAP4-RPPGF inhibits the ability of these enzymes to hydrolyze their substrates
RPPGF (modifications not checked) [RPPGF (Arg-Pro-Pro-Gly-Phe, SEQ ID NO:4)] | – | – | – | – | – | inhibition of thrombocytin cleavage of recombinant human PAR1 extracellular domain (SDS-PAGE) [11]: 0.5 mM and 1 mM
[dR][Oic]PGF [rOicPGF (D-Arg-Oic-Pro-Gly-Phe)] | – | – | – | – | – | concentration giving significant prolongation (p<0.05) of the activated partial thromboplastin time [12]: 15 µM; concentration giving significant prolongation (p<0.05) of the prothrombin time [12]: 60 µM; concentration giving significant prolongation (p<0.05) of the thrombin clotting time [12]: 15 µM; concentration giving significant prolongation of the APTT of normal human plasma [12]: 3.7 µM; concentration giving significant prolongation of the PT of normal human plasma [12]: 30 µM; concentration giving significant prolongation of the TCT of normal human plasma [12]: 3.7 µM
